What was measured:
FABP4 [1] = molecular target: T1, FABP4 (Homo sapiens, UniProt P15090); assay: fluorescent probe, emission shift on binding to FABP4
T1 sequence (P15090 2-132): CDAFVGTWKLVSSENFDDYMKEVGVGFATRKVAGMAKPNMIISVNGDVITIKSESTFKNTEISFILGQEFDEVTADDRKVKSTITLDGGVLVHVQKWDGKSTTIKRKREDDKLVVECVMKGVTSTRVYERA

FABP4 [2] = molecular target: T1, FABP4; assay: fluorescence displacement; STD-NMR (weak signal) and ligand-observed 1H-NMR; type: binding
FABP4 [3] = molecular target: T1, FABP4; assay: fluorescence displacement; STD-NMR and ligand-observed 1H-NMR; type: binding

## O=S(=O)(O)c1cccc2cccc(Nc3ccccc3)c12 [1,8-ANS, 8-anilino-1-naphthalenesulfonic acid]
FABP4 [1]
  fluorescent probe, emission shift on binding to FABP4: When ANS binds to FABP4, its maximum emission light will be blue-shifted

## OCc1ccc(O)cc1 [4-HBA, 4-hydroxybenzyl alcohol]
FABP4 [2]
  IC50: 50.5 µM

## OCc1ccc(O[C@@H]2O[C@H](CO)[C@@H](O)[C@H](O)[C@H]2O)cc1 [GAS, gastrodin]
FABP4 [3]
  IC50: 29.8 µM

From PMC11095988, “The Molecular Mechanism of FABP4 Inhibition Effects of GAS and 4-HBA in Gastrodia elata Blume Was Discussed Based on NMR and Molecular Docking” (Journal of Analytical Methods in Chemistry, 2024)
